The values below come from ChEMBL document CHEMBL1201862, “PubChem BioAssay data set” (2004).

Test systems include 786-0; ACHN; CCRF-CEM; DU-145; HCC 2998; HOP-92; KM12; LOX IMVI; MDA-N; NCI/ADR-RES; OVCAR-4; OVCAR-5; RXF 393; SF-295; SF-539; SK-MEL-2; SNB-19; SNB-75; SW-620; UACC-257.
What all share (assay): DTP human tumour cell line panel, 48 h

Structures are written as SMILES.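 Following 48 hours of exposure in 96-well plates, responses at five concentrations were used to interpolate endpoints linearly. Here, GI50 denotes the concentration required for 50% inhibition of growth.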 Calls of active or inactive are those of the source. Cut-off read from the data, not from the text of the source: active = GI50 up to about 1.1 µM and inactive = higher. *1 amine or outer side, *2 acyl side, *3 side chain or, on linkers, in order; H or OH if unused. Where a SMILES comes first, the peptide text is derived from it. Bridges are numbered along the chain shown (N, C = ends). Roman numbers before positions name the chains, in order. [ ]: non-standard residue; d: D form. Actinocin(9to1) = Cc1c2oc3c(C)ccc(C(=O)[*:1])c3nc-2c(C(=O)[*:2])c(N)c1=O; NMeV = CN[CH](C(=O)O)C(C)C; Sar = CNCC(=O)O

`O=C1c2ccccc2-c2c1c1ccccc1c(=O)n2-c1cccnc1`: the GI50 with 786-0 is 9.91 µM (inactive); in the test with ACHN, 23.2 µM (inactive); with CCRF-CEM it was > 10 µM (inactive); with DU-145, > 100 µM (inactive); in the test with HCC 2998, > 100 µM (inactive); in the test on HOP-92, 8.17 µM (inactive). Besides, the GI50 with KM12 was > 100 µM (inactive); in the test on LOX IMVI, 32.1 µM (inactive); with MDA-N it was > 100 µM (inactive); in the test with NCI/ADR-RES it was 45.8 µM (inactive); in the test on OVCAR-4, > 49.3 µM (inactive); in the test on OVCAR-5, > 100 µM (inactive). Besides, the GI50 in the test with RXF 393 is > 100 µM (inactive); with SF-295 it was 27 µM (inactive); with SF-539 it was 21.3 µM (inactive); in the test on SK-MEL-2, > 100 µM (inactive); with SNB-19, 24.6 µM (inactive); in the test on SNB-75, 49.1 µM (inactive). Moreover, the GI50 in the test on SW-620 is 20.2 µM (inactive); in the test on UACC-257, > 100 µM (inactive).

On to `Cc1ccc(OCCn2cc(Nc3ccccc3)c(=O)n(CCOc3ccc(C)cc3)c2=O)cc1`, for which the GI50 with 786-0 was 48 µM (inactive); in the test with ACHN it was > 100 µM (inactive); with CCRF-CEM, > 100 µM (inactive); in the test with DU-145, > 100 µM (inactive); in the test on HCC 2998 it was > 100 µM (inactive); in the test on HOP-92, 44.5 µM (inactive). Moreover, the GI50 with KM12 was > 100 µM (inactive); with LOX IMVI, > 100 µM (inactive); in the test with MDA-N, > 100 µM (inactive); in the test on NCI/ADR-RES it was > 100 µM (inactive); in the test with OVCAR-4, 49.9 µM (inactive); in the test with OVCAR-5 it was > 100 µM (inactive). The GI50 with RXF 393 is 23.5 µM (inactive); with SF-295, 50.2 µM (inactive); in the test on SF-539 it was > 100 µM (inactive); in the test on SK-MEL-2 it was > 100 µM (inactive); in the test with SNB-19 it was 48.9 µM (inactive); with SNB-75, > 100 µM (inactive). In addition, the GI50 with SW-620 and in the test with UACC-257 was > 100 µM (inactive) each time.

For `CCCCCC(O)[C@H]1C(=O)C[C@@H](O[Si](C)(C)C(C)(C)C)[C@@H]1/C=C/CCOCc1ccccc1` (stereo not given in full), the GI50 in the test with 786-0 is 11.4 µM (inactive); with ACHN, 13.5 µM (inactive); in the test on CCRF-CEM it was > 55.5 µM (inactive); in the test on DU-145, 20 µM (inactive); in the test on HCC 2998, 14.9 µM (inactive); in the test with HOP-92, 12.4 µM (inactive). The GI50 was 5.41 µM (inactive) with KM12; 10.9 µM (inactive) in the test with LOX IMVI; 9.51 µM (inactive) with MDA-N; 12.1 µM (inactive) with NCI/ADR-RES; 12.6 µM (inactive) in the test on OVCAR-4; 17.9 µM (inactive) in the test on OVCAR-5. In addition, the GI50 in the test on RXF 393 is 12.2 µM (inactive); with SF-295 it was 2.39 µM (inactive); with SF-539, 4.23 µM (inactive); in the test on SK-MEL-2, 15.5 µM (inactive); in the test with SNB-19, 15 µM (inactive); in the test with SNB-75 it was 17.8 µM (inactive). Besides, the GI50 in the test with SW-620 was 13.1 µM (inactive); with UACC-257, 13.3 µM (inactive).

Consider `CC(C)=CCC[C@@H](C)[C@H]1CC[C@@]2(C)[C@@H]3CC[C@H]4C(C)(C)[C@@H](O)CC[C@@]45C[C@@]35CC[C@]12C` [CYCLOARTENOL], for which the GI50 in the test on 786-0 is 43.8 µM (inactive); with ACHN it was 31.5 µM (inactive); in the test with CCRF-CEM it was 23 µM (inactive); with DU-145, 59.7 µM (inactive); with HCC 2998 it was > 31.6 µM (inactive); in the test with HOP-92, 17.7 µM (inactive). Further, the GI50 with KM12 is > 56.8 µM (inactive); in the test on LOX IMVI it was 21 µM (inactive); in the test on MDA-N, > 72.9 µM (inactive); in the test with NCI/ADR-RES it was 23.4 µM (inactive); in the test with OVCAR-4, > 100 µM (inactive); in the test on OVCAR-5, > 54.2 µM (inactive). For the same molecule, the GI50 was 18 µM (inactive) with RXF 393; > 48.2 µM (inactive) in the test on SF-295; > 49.7 µM (inactive) with SF-539; 27.2 µM (inactive) with SK-MEL-2; 58.7 µM (inactive) with SNB-19; > 55.7 µM (inactive) in the test on SNB-75. In addition, the GI50 in the test with SW-620 is 58.2 µM (inactive); with UACC-257 it was > 100 µM (inactive).

Regarding `O=C1c2ccccc2-n2c1nc1ccccc1c2=O` [TRYPTANTHRIN], the GI50 in the test on 786-0 is 28.2 µM (inactive); in the test on ACHN it was 2 µM (inactive); in the test on CCRF-CEM, 9.08 µM (inactive); in the test with DU-145, 10.7 µM (inactive); in the test on HCC 2998 it was 29.4 µM (inactive); with HOP-92, 44.5 µM (inactive). The GI50 is 6.62 µM (inactive) in the test on KM12; 4.44 µM (inactive) in the test on LOX IMVI; 18.2 µM (inactive) in the test with MDA-N; 22.3 µM (inactive) in the test on NCI/ADR-RES; 19.1 µM (inactive) with OVCAR-4; 16 µM (inactive) in the test with OVCAR-5. The GI50 with RXF 393 was 28.1 µM (inactive); in the test on SF-295 it was 4.29 µM (inactive); in the test with SF-539, 20.7 µM (inactive); in the test with SK-MEL-2 it was 10.1 µM (inactive); with SNB-19, 25 µM (inactive); in the test with SNB-75, 30.8 µM (inactive). Moreover, the GI50 with SW-620 is 20.8 µM (inactive); in the test on UACC-257, 3.02 µM (inactive).

In the case of `C=C(C)[C@@H]1CC[C@]2(C)CC[C@]3(C)[C@H](CC[C@@H]4[C@@]5(C)CC[C@H](O)C(C)(C)[C@@H]5CC[C@]43C)[C@@H]12` [LUPEOL], the GI50 in the test with 786-0 is 37.2 µM (inactive); in the test on ACHN it was > 55.1 µM (inactive); in the test on CCRF-CEM it was 22.1 µM (inactive); in the test on DU-145, > 100 µM (inactive); in the test with HCC 2998 it was > 100 µM (inactive); with HOP-92, 36.1 µM (inactive). The GI50 is > 67 µM (inactive) in the test with KM12; 19.5 µM (inactive) in the test with LOX IMVI; 32.7 µM (inactive) in the test with MDA-N; 26.7 µM (inactive) with NCI/ADR-RES; > 100 µM (inactive) in the test on OVCAR-4; > 100 µM (inactive) with OVCAR-5. Further, the GI50 was 14 µM (inactive) with RXF 393; > 50.8 µM (inactive) in the test on SF-295; > 88.7 µM (inactive) with SF-539; > 100 µM (inactive) in the test on SK-MEL-2; > 47.3 µM (inactive) in the test on SNB-19; 38.2 µM (inactive) in the test with SNB-75. The GI50 was > 48.2 µM (inactive) in the test with SW-620 and > 42.7 µM (inactive) in the test on UACC-257.

`COc1ccc2nc3cccc([N+](=O)[O-])c3c(NCCC(=O)O)c2c1`: the GI50 in the test with 786-0 was > 10 µM (inactive); with ACHN, > 10 µM (inactive); with CCRF-CEM, 6.67 µM (inactive); in the test with DU-145, > 10 µM (inactive); with HCC 2998, > 10 µM (inactive); with HOP-92, > 10 µM (inactive). Also, the GI50 in the test on KM12, in the test on LOX IMVI, with MDA-N, in the test with NCI/ADR-RES, with OVCAR-4 and in the test with OVCAR-5 was > 10 µM (inactive) in each case. In addition, the GI50 with RXF 393, in the test on SF-295, in the test on SF-539, in the test on SK-MEL-2, in the test with SNB-19 and with SNB-75 was > 10 µM (inactive) each time. In addition, the GI50 in the test with SW-620 and in the test with UACC-257 was > 10 µM (inactive) each time.

Regarding `C[C@H](CC[C@@H](O)C(C)(C)O)[C@H]1CC[C@@]2(C)[C@@H]3CC=C4[C@@H](CC[C@H](OC5OC(CO)C(O)C(O)C5O)C4(C)C)[C@]3(C)C(=O)C[C@]12C` (stereo not given in full), the GI50 was 26.6 µM (inactive) in the test on 786-0; 32.7 µM (inactive) with ACHN; 14.6 µM (inactive) in the test with CCRF-CEM; 39 µM (inactive) in the test on DU-145; 89.7 µM (inactive) with HCC 2998; > 100 µM (inactive) in the test with HOP-92. Besides, the GI50 with KM12 was > 100 µM (inactive); in the test on LOX IMVI, 39 µM (inactive); in the test on MDA-N, 32.7 µM (inactive); in the test on NCI/ADR-RES, > 100 µM (inactive); with OVCAR-4, 45.3 µM (inactive); in the test with OVCAR-5, > 100 µM (inactive). The GI50 in the test on RXF 393 was 35.2 µM (inactive); in the test with SF-295 it was 90.4 µM (inactive); in the test on SF-539 it was > 100 µM (inactive); in the test with SK-MEL-2, 26.3 µM (inactive); in the test with SNB-19, 62.5 µM (inactive); in the test with SNB-75 it was 34.3 µM (inactive). Besides, the results for the GI50 in the test on SW-620 and in the test with UACC-257 were 4.03 µM (inactive) and 33.7 µM (inactive), respectively.

As for `Cc1c2oc3c(C)ccc(C(=O)NC4C(=O)NC(C(C)C)C(=O)N5CCCC5C(=O)N(C)CC(=O)N(C)C(C(C)C)C(=O)OC4C)c3nc-2c(C(=O)NC2C(=O)NC(C(C)C)C(=O)N3CCCC3C(=O)N(C)CC(=O)N(C)C(C(C)C)C(=O)OC2C)c(N)c1=O` (stereo not given) (I: TVP[Sar][NMeV] / II: TVP[Sar][NMeV]; ester I:1-I:C, II:1-II:C; linker I:N-II:N via Actinocin(9to1); configuration not given here), the GI50 in the test on 786-0 was 0.000143 µM (active); in the test with ACHN, 0.000213 µM (active); with CCRF-CEM, < 0.0001 µM (active); in the test on DU-145 it was 0.000359 µM (active); with HCC 2998 it was 0.00684 µM (active); with HOP-92 it was 0.00177 µM (active). In addition, the GI50 was < 0.0001 µM (active) in the test with KM12; < 0.0001 µM (active) in the test with LOX IMVI; 0.000197 µM (active) in the test with MDA-N; 0.0499 µM (active) in the test on NCI/ADR-RES; 0.000445 µM (active) with OVCAR-4; 0.00181 µM (active) in the test on OVCAR-5. Moreover, the GI50 in the test with RXF 393 is 0.00136 µM (active); with SF-295 it was 0.000522 µM (active); in the test with SF-539 it was < 0.0001 µM (active); in the test on SK-MEL-2, < 0.0001 µM (active); in the test on SNB-19, 0.000112 µM (active); with SNB-75 it was < 0.0001 µM (active). The GI50 in the test on SW-620 is 0.000698 µM (active); in the test with UACC-257 it was 0.000957 µM (active).
